The values below come from US12171782B2 (priority 2020, dated 2024).

One may read the IC50 as the concentration that gives 50% inhibition. Usually Ki stands for the dissociation constant of the complex between target and ligand, obtained from inhibition or displacement.

The target of one data set is SARS-CoV PLP (Severe acute respiratory syndrome coronavirus, UniProt P0C6X7). The note with it: cited from earlier work.
The target of a further data set is 3CLPro/Mpro of SARS-CoV (Severe acute respiratory syndrome coronavirus, UniProt P0C6X7). As to conditions: cited from earlier work.
The target in the next data set is SARS-CoV N protein (Severe acute respiratory syndrome coronavirus, UniProt P59595). As to conditions: cited from earlier work.
For data set [1], the target named is 3CLpro from the first SARS-CoV (Severe acute respiratory syndrome coronavirus, UniProt P0C6X7). The note with it: cited from earlier work.
A further data set addresses PLP of SARS-CoV-2 (Severe acute respiratory syndrome coronavirus 2, UniProt P0DTD1). As to conditions: cited from earlier work.
Data set [2] concerns SARS-CoV-2 pseudotyped lentiviral vectors. The note with it: blocked entry of pseudotyped lentiviral vectors; cited from earlier work.
The test system of data set [3] is SARS-CoV-2 replicating virus in Vero cells. The note with it: virus replication; cited from earlier work.
For the next data set, the system named is SARS-CoV-2 strain. The note with it: plaque reduction neutralization test; read-out: PRNT50; cited from earlier work. (In a plaque reduction assay, fewer plaques than in the control indicate reduced infectivity or spread.)
In data set [4] the test system is peripheral blood mononuclear cells (PBMC). The experiment in a line: MTT cytotoxicity assay in PBMCs. The note with it: different concentrations, 24 h (FIG. 17).
In another data set the test system is common cold. The note with it: after 7 days of treatment, 23 mg; placebo 46%; cited from earlier work.

Chain of SARS-CoV N protein (P59595 whole entry, looked up): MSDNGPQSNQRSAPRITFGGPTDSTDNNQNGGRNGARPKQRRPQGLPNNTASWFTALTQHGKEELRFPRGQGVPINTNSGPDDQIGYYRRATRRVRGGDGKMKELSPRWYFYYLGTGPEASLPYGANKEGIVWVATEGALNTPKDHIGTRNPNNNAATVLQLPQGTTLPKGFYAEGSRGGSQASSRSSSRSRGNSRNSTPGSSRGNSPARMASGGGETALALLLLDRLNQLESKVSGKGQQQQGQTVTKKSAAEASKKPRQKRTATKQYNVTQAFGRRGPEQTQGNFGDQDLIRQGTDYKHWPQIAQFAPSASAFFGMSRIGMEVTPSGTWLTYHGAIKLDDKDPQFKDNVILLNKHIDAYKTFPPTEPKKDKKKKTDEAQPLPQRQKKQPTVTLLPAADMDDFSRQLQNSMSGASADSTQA

With `[Ca+2]` [Ca], at SARS-CoV PLP, the “effects on the activity of PLP” value was “no effects”.

On to `[Co+2]` [Co], for which, at SARS-CoV PLP, the “effects on the activity of PLP” value is recorded as “no effects”.

As to `[Mg]` [Mg], the “effects on the activity of PLP” value on SARS-CoV PLP is “no effects”.

Turning to `[Mn]` [Mn], the “effects on the activity of PLP” value at SARS-CoV PLP is “no effects”.

In the case of `[Ni]` [Ni], the “effects on the activity of PLP” value at SARS-CoV PLP was “no effects”.

Regarding `[Zn+2]` [Zn^2+], the 50% inhibitory concentration (IC50) on SARS-CoV PLP is 1300 nM. Also, the Ki on 3CLPro/Mpro of SARS-CoV was 1100 nM.

In the case of (−)-gallocatechin gallate, the IC50 on SARS-CoV N protein is 0.05 µg/mL.

With Epigallocatechin-3-gallate [EGCG], the IC50 in data set [1] was 73000 nM; in [2] it was 2.47 µg/mL; in data set [3], 1.73 µg/mL. In addition, the “inhibition of the recombinant 3CLpro/Mpro” value in data set [1] is “over 85%”. Moreover, the “binding affinity to PLP core structure” value at PLP of SARS-CoV-2 is listed as “highest binding affinity”. In the data set on SARS-CoV-2 strain, the EC50 was 200 nM. For the same compound, the cell viability result in [4] is reported as “a decrease in viability”.

Take N-ethyl-N-phenyl-dithio-carbamate-Zinc: on SARS-CoV PLP, the IC50 was 3300 nM.

Turning to Zinc gluconate, the subjects asymptomatic in the data set with common cold is given as 86%.
